Test results as given in US20200016062A1, “TERMINALIA FERDINANDIANA LEAF EXTRACT AND PRODUCTS CONTAINING EXTRACT OF TERMINALIA FERDINANDIANA LEAF” (RISING PHOENIX INDUSTRIES PTY LTD, priority 2016, published 2020).

Test system: C. jeikeium
Experiment: modified disc diffusion assay, C. jeikeium
Assay type: cell-based, Corynebacterium jeikeium
Details: 10 μL extract per disc; vancomycin 5 μg disc; aerobic, 37° C., 24 hours
Experimental: Evaluation of antibacterial activity screening of the T. ferdinandiana fruit and leaf extracts was assessed using a modified disc diffusion assay.
100 μL of each individual bacteria (C. jeikeium, B. linens, P. acnes and S. epidermidis) was grown separately in 20 mL of the appropriate broth until an approximate count of 10^8 cells/mL was reached.
A volume of 100 μL of each bacterial suspension was spread onto agar plates and the extracts tested for antibacterial activity using 5 mm sterilised filter paper discs.
C. jeikeium cultures were spread onto nutrient agar plates supplemented with 300 μL Tween 80/L of agar.
Discs were infused with 10 μL of the individual extracts, allowed to dry and placed onto inoculated plates. The plates were left to stand at 4° C. for 2 hours before incubation.
Plates inoculated with B. linens, S. epidermidis or C. jeikeium cultures were incubated aerobically at 37° C. for 24 hours.
The diameters of the inhibition zones were measured to the closest whole millimetre. Each assay was completed in at least triplicate. […]
The ability of T. ferdinandiana leaf and fruit extracts to inhibit the growth of bacterial species under test associated with the production of body and foot odours were assessed. […]

CN[C@H](CC(C)C)C(=O)N[C@H]1C(=O)N[C@@H](CC(N)=O)C(=O)N[C@H]2C(=O)N[C@H]3C(=O)N[C@H](C(=O)N[C@H](C(=O)O)c4cc(O)cc(O)c4-c4cc3ccc4O)[C@H](O)c3ccc(c(Cl)c3)Oc3cc2cc(c3O[C@@H]2O[C@H](CO)[C@@H](O)[C@H](O)[C@H]2O[C@H]2C[C@](C)(N)[C@H](O)[C@H](C)O2)Oc2ccc(cc2Cl)[C@H]1O [vancomycin]
growth inhibitory activity against C. jeikeium (zones of inhibition): good inhibitor
